Measured values as given in patent US20210008075A1, “PEDIATRIC DOSING FOR TREATMENT OF CANCER WITH AN EZH2 INHIBITOR” (Epizyme, Inc., priority 2015, published 2021).
“Also recorded” adds a separate entry of the source. Where two headings read alike, the source gives them in different places. One block for each compound: values may come before it.

Experiments:
[1] = tested on: primary medulloblastoma cells; details: for primary medulloblastoma cell growth ex vivo: slice culture treated for 4 days
Experimental: A slice culture of medulloblastoma was freshly isolated from a subject.
A patient having medulloblastoma underwent surgery to remove a slice of tumor tissue for testing. The medulloblastoma slice was cultured ex vivo on tissue supporting inserts (FIG. 28A). […] Following the treatment period, the cells of the slice culture were treated with BrdU for 4 hours prior to disaggregation and sorting by flow cytometry.

[2] = tested on: G401 SNF5 mutant cell line; assay: CellTiter-Glo Luminescent Cell Viability Assay after 7 day pretreatment; assay type: cell-based; details: pretreated for 7 days, replated on day 0
Experimental: FIGS. 4A-4D are four graphs showing that G401 SNF5 mutant cell line is sensitive to Compound A in vitro. Wild type cell line SJCRH30 (FIG. 4A) and RD (FIG. 4C) and SNF5 mutant cell line G401 (FIG. 4B) and A204 (FIG. 4D) were pretreated for 7 days with indicated concentrations of Compound A and replated on day 0. Cell viability was determined by CellTiter-Glo® Luminescent Cell Viability Assay.

[3] = PBPK model (Gastroplus) prediction of adult steady-state PK; details: adults, 100-1600 mg BID
[4] = tested on: SMARCB1-deleted MRT cells (G401); assay: Cell cycle analysis (flow cytometry) and apoptosis (TUNEL assay); assay type: cell-based; details: 1 μM, up to 14 days
Experimental: Cell cycle analysis (by flow cytometry) and determination of apoptosis (by TUNEL assay) in RD (FIG. 13A) or G401 cells (FIG. 13B) during incubation with either vehicle or 1 μM Compound A for up to 14 days. […] Data are represented as mean values±SEM (n=2). The DMSO control values shown are the average±SEM from each time point. Cells were split and re-plated on days 4, 7 and 11 at the original seeding density.

ATRT = ATRT in vivo, percent survival
Medulloblastoma cells = assay: Medulloblastoma cell growth, total cells per milliliter counted; assay type: cell-based; details: versus DMSO control, counted each day for 10 days; tazemetostat 0.5, 2 and 6 μM
Excerpt: The total cells per milliliter of culture were counted each day for 10 days.

[5] = Phase 1 clinical trial, observed steady-state PK in adults; details: for CL/F Observed: adults, steady-state; for AUC(0-t) / Cmax: human, in vivo, po
[6] = tested on: G401 xenografts (malignant rhabdoid tumor model); assay: G401 xenograft tumor regression; assay type: in vivo, SCID mice; details: twice daily (BID) administration at the indicated doses; listed as Compound A
Experimental: Data represent the mean values±SEM (n=8). Compound administration was stopped on day 28. (FIG. 5C) EZH2 target inhibition in G401 xenograft tumor tissue collected from a parallel cohort of mice on day 21. […] Horizontal lines represent group mean values. BLLQ=below lower limit of quantification. (FIG. 5D, FIG. 5E) Immunohistochemical staining of tumor histone methylation of tumor samples from the vehicle treated (FIG. 5D) and Compound A treated (FIG. 5E) (at 125 mg/kg) mice.
Data are presented as mean values±SEM (n=16 until day 21, n=8 from day 22 to 60). […] (FIG. 15C) Tumor weights of 8 mice euthanized on day 21. ****p<0.0001, Fisher's exact test. (FIG. 15D) Plasma was collected 5 min before and 3 h after dosing of Compound A on day 21, and compound levels were measured by LC-MS/MS. Animals were euthanized, and tumors were collected 3 h after dosing on day 21. Tumor homogenates were generated and subjected to LC-MS/MS analysis to determine Compound A concentrations. Note that tumor compound levels could not be determined from all animals especially in the higher dose groups because the xenografts were too small on day 21. Dots represent values for the individual animals; horizontal lines represent group mean values.
Compound administration was stopped on day 28 and tumors were allowed to re-grow until they reached 2000 mm^3 (data shown as mean values±SEM, n=8). […]

[7] = Oral bioavailability (general statement); details: in vivo
cellular H3K27Me3 = assay: Cellular histone methylation in G401 and RD cells; assay type: cell-based
Experimental: FIGS. 10A-10C are a series of graphs showing effects of Compound A on cellular global histone methylation and cell viability.
(FIG. 12A) Cell lysates were analyzed by immunoblot with antibodies specific to SMARCB1, EZH2 and Actin (loading control). […] Cells were incubated with Compound A for 4 days, and acid-extracted histones were analyzed by immunoblot.

SMARCB1 regulated genes = assay: Gene expression by qPCR and cell morphology; assay type: cell-based; details: 1 μM; 2, 4 and 7 days (G401, RD); 14 days (G402)
Experimental: (FIG. 14A) Basal expression of SMARCB1 regulated genes in G401 SMARCB1-deleted cells, relative to RD control cells (measured by qPCR, n=2). (FIGS. 14B-14L) G401 and RD cells were incubated with either DMSO or 1 μM Compound A for 2, 4 and 7 days. Gene expression was determined by qPCR (n=2) and is expressed relative to the DMSO control of each time point. FIGS. 14B-14K correspond to genes GLI1, PTCh1, DOCK4, CD133, PTPRK, BIN1, CDKN1A, CDKN2A, EZH2, and MYC, respectively. (FIG. 14L) G402 cells were incubated with either DMSO (left panel) or 1 μM Compound A (right panel) for 14 days. Cells were split and re-plated to the original seeding density on day 7.

BT-16 ATRT cell line = assay: Surviving fraction after 2Gy radiation; assay type: cell-based
Excerpt: FIG. 25A is a pair of graphs showing a surviving fraction of untreated or DZNEP-treated ATRT cells (from a BT-16 ATRT cell line) exposed to 2Gy radiation.

[8] = tested on: atypical teratoid rhabdoid tumors (ATRTs); assay: ATRT cell self-renewal; assay type: cell-based; details: up to 7 or 10 days post-treatment
Excerpt: FIG. 24A is a series of photographs showing control or EZH2 inhibitor-treated (DNZep-treated) atypical teratoid rhabdoid tumors (ATRTs) at 1, 3, 5, and 7 days post-treatment.
FIG. 24D is a series of photographs showing control or EZH2 inhibitor-treated (DNZep-treated) atypical teratoid rhabdoid tumors (ATRTs) at 3, 5, 8 and 10 days post-treatment.

UPN737 ATRT cell line = assay: Surviving fraction after 2Gy radiation; assay type: cell-based
Excerpt: FIG. 25B is a pair of graphs showing a surviving fraction of untreated or DZNEP-treated ATRT cells (from a UPN737 ATRT cell line, “737”) exposed to 2Gy radiation.

[9] = tested on: SNF5 mutant cell lines A204, G401 and G402; assay: Response of SNF5 mutant versus wild type cell lines; assay type: cell-based
[10] = tested on: LNCAP prostate cancer cells; assay: LNCAP cell growth inhibition in vitro; assay type: cell-based
SCLC line NCI-H841 = assay: Morphology of SCLC line by microscopy; assay type: cell-based; details: 4.1E-02 uM or 3.3 uM
[11] = tested on: ATRX mutant SCLC lines NCI-H446, SW1271 and NCI-H841; assay: Response of ATRX mutant SCLC lines; assay type: cell-based
Excerpt: FIGS. 8A-8C are three graphs establishing that ATRX mutant SCLC lines NCI-H446 (FIG. 8A), SW1271 (FIG. 8B) and NCI-H841 (FIG. 8C) are responding to Compound D.

[12] = tested on: G401 SNF mutant cell line; assay: Soft agar growth, 7 days; assay type: cell-based; details: after 7 days
Excerpt: FIGS. 3A-3D are a series of bar graphs showing that G401 SNF mutant cell line is responding to Compound D after 7 days in soft agar compared to wild type cells RD.

[13] = 500 nM or 2 μM for 4 days, versus untreated control

deviation of predicted mean steady-state AUC0-t from observed [3]: ≤ 30%
deviation of predicted oral clearance (CL/F) from observed [3]: ≤ 30%
CL/F Observed ([5]; 100 mg BID p.o. (n = 6)): 309 L/h
CL/F Observed ([5]; 200 mg BID p.o. (n = 3)): 198 L/h
CL/F Observed ([5]; 400 mg BID p.o. (n = 3)): 264 L/h
CL/F Observed ([5]; 800 mg BID p.o. (n = 6)): 152 L/h
CL/F Observed ([5]; 1600 mg BID p.o. (n = 6)): 180 L/h
AUC(0-t) ([5]; 100 mg): 348 ng·h/mL
Cmax ([5]; 100 mg): 99 ng/mL
AUC(0-t) ([5]; 200 mg): 1010 ng·h/mL
Cmax ([5]; 200 mg): 237 ng/mL
AUC(0-t) ([5]; 400 mg): 1510 ng·h/mL
Cmax ([5]; 400 mg): 313 ng/mL
AUC(0-t) ([5]; 800 mg): 4630 ng·h/mL
Cmax ([5]; 800 mg): 818 ng/mL
AUC(0-t) ([5]; 1600 mg): 7880 ng·h/mL
Cmax ([5]; 1600 mg): 1480 ng/mL
oral bioavailability [7]: orally bioavailable
Structure (SMILES): CCN(c1cc(-c2ccc(CN3CCOCC3)cc2)cc(C(=O)NCc2c(C)cc(C)[nH]c2=O)c1C)C1CCOCC1 [tazemetostat]
proportion of cells in G0/G1 stage [1, 13]: increased proportion
proportion of cells in G2/M stage [1, 13]: decreased proportion
primary medulloblastoma cell growth ex vivo [1]: inhibits proliferation/growth of medulloblastoma cells
primary medulloblastoma cell growth ex vivo ([1]; listed as Tazemetostat): decreases primary medulloblastoma cell growth ex vivo
sensitivity of cell viability in vitro [2]: sensitive
G1 arrest [4]: G1 arrest was observed as of day 7
apoptosis ([4]; TUNEL): apoptosis was induced as of day 11
ATRT in vivo (percent survival versus vehicle) (ATRT): decreases ATRT in vivo
medulloblastoma cell growth (total cells per milliliter) (Medulloblastoma cells): significant decrease; also recorded: decrease medulloblastoma cell growth
tumor response in G401 xenografts [6]: durable regressions; also recorded: Tumor regressions; also recorded: eradicates SMARCB1-deleted MRT xenografts
cellular H3K27Me3 levels (cellular H3K27Me3): Concentration-dependent inhibition
specificity for inhibition of cellular histone methylation (cellular H3K27Me3; 4 days, immunoblot): Selective inhibition of cellular H3K27 methylation
expression of SMARCB1 regulated genes and cell morphology (SMARCB1 regulated genes): induces changes in expression of SMARCB1 regulated genes and cell morphology

Structure (SMILES): CCCc1cc(C)[nH]c(=O)c1CNC(=O)c1cc(-c2ccc(N3CCN(C(C)C)CC3)nc2)cc2c1cnn2C(C)C [UNC 1999, reference compound]
medulloblastoma cell growth (total cells per milliliter) (Medulloblastoma cells): decrease medulloblastoma cell growth

Structure (SMILES): Nc1nccc2c1ncn2C1C=C(CO)C(O)C1O (centres unmarked) [DNZep]
radio-sensitization (surviving fraction) (BT-16 ATRT cell line): radio-sensitizes ATRT
ATRT cell self-renewal [8]: suppresses ATRT cell self-renewal
radio-sensitization (surviving fraction) (UPN737 ATRT cell line): radio-sensitizes ATRT

Structure (SMILES): CC[C@H](C)n1cc(C)c2c(C(=O)NCc3c(C)cc(C)[nH]c3=O)cc(-c3ccc(N4CCNCC4)nc3)cc21 [GSK-126, reference compound]
medulloblastoma cell growth (total cells per milliliter) (Medulloblastoma cells): decrease medulloblastoma cell growth

Structure (SMILES): CCN(c1cc(-c2ccc(CN3CCOCC3)cc2)cc(C(=O)NCc2c(C)cc(C)[nH]c2=O)c1C)[C@H]1CC[C@H](N(C)C)CC1 [Compound D]
response of SNF5 mutant cell lines compared to wild type cell lines RD and SJCRH30 [9]: selectively respond
cell growth inhibition [10]: dose-dependent cell growth inhibition
cell morphology (SCLC line NCI-H841): changes morphology
response of ATRX mutant SCLC lines [11]: responding
response in soft agar compared to wild type cells RD [12]: responding
